Laboratory results reported in patent US8278482B2, “Antimicrobial N-chlorinated compositions” (priority 2008, dated 2012).

Key:
Assay type in all cases: cell-based
[1] = test system: Candida albicans (ATCC 10231); experiment: Antimicrobial activity (MFC), C. albicans ATCC 10231; details: ATCC10231, C. albicans ATCC 10231, pH 4 (Sal), 1 h exposure at room temperature, read-out: Minimum Fungicidal Concentration (MFC) (≧99.9% kill)
Description: (§1) To determine antimicrobial activity, Escherichia coli (ATCC 25922), Staphylococcus aureus (ATCC 29213), Pseudomonas aeruginosa (ATCC 27853), and Candida albicans (ATCC 10231) were used in primary screening. In addition, Escherichia coli (MCC 80392), Staphylococcus aureus (MCC 91731), Pseudomonas aeruginosa (MCC 4438), and Candida albicans (MCC 50319), provided by Alcon Laboratories, Fort Worth, Tex., were used. The microbial cultures were diluted in sterile saline pH 4 to prepare inocula. Test compounds were titrated by stepwise two-fold dilutions in sterile saline pH 4. A total of 1.0×10^5 to 1.0×10^6 Colony Forming Units (CFU)/mL microbe was added to each tube, mixed by gentle vortexing, and then incubated at room temperature for 1 h. Microbial plating on Petri dishes (Tryptic Soy agar or Saboraud's Dextrose agar) was performed immediately after the designated exposure after neutralization of the test article dilutions in Dey-Engley Broth. Plates were incubated at 37° C., and the numbers of microbes were counted by direct colony count to quantitate the surviving microbes as CFU/mL. Positive growth controls were made with sterile 0.9% saline. Compounds were dissolved in unbuffered isotonic saline (SAL) or phosphate buffered saline (PBS) at pH 4 or pH 7 (using HCl and/or NaOH as needed). All compounds were tested three times. The results are tabulated to show the comparison of antimicrobial effectiveness range of the compounds.
(§2) Data shown are the Minimum Bactericidal Concentration (MBC) or Minimum Fungicidal Concentration (MFC) (≧99.9% kill) in μg/mL.

[2] = test system: Escherichia coli (ATCC 25922); experiment: Antimicrobial activity (MBC), E. coli ATCC 25922; details: ATCC25922, E. coli ATCC 25922, pH 4 (Sal), 1 h exposure at room temperature, read-out: Minimum Bactericidal Concentration (MBC) (≧99.9% kill)
Description: as §1, §2

[3] = test system: mouse fibroblast cells (ATCC CCL-1, L929); experiment: Cytotoxicity, WST-8 colorimetric assay; details: pH 4 (Sal), 60 min exposure
Description: Cytotoxicity was assessed by a colorimetric assay system using the Dojindo™ cell counting kit containing 2-(2-methoxy-4-nitrophenyl)-3-(4-nitrophenyl)-5-(2,4-disulfophenyl)-2H-tetrazolium, monosodium salt (WST-8). In this assay, the WST-8 reagent was bioreduced by cellular dehydrogenases to a formazan product that is highly soluble in tissue culture medium.
In a standard assay, mouse fibroblast cells (ATCC CCL-1, L929), were cultured in Minimum Essential Medium, α-medium supplemented with 10% heat inactivated fetal bovine serum, L-glutamine, penicillin and streptomycin. Cells were trypsinized and counted under the microscope and seeded at 1.5×10^4 total cells per 100 μL per well of a flat-bottom 96-well plate in order to achieve ˜80% confluence after overnight incubation at 37° C. On the day of the assay, the tissue culture medium was removed and replaced with 30 μL of fresh medium.
Test articles were prepared as 2-fold serial dilutions and 170 μL of each dilution is added into each of 4-wells (total volume per well=200 μL). The test plate was then returned to the 37° C. incubator for 60 min. Immediately after the exposed time, test article from each well was replaced with 200 μL of fresh media. Plates were incubated at 37° C. for 18-20 hours. The following day growth medium was replaced with 100 μL/well of fresh medium containing 10 μL WST-8 reagent. Cells were incubated under growth conditions (5% CO2 at 37° C. humidified incubator), protected from light, until color development was achieved (usually 1-4 hours). Absorbance was read at 450 nm with reference wavelength at 750 nm using Molecular Device SpectraMax M5 plate reader. Untreated or vehicle only treated cells receiving WST-8 reagent served as positive cell proliferation controls.
The absorbance A450/750 from each well of untreated cells and from each well within the dilution series was measured. […] Next, a non-linear regression (curve fit) analysis was performed on all the absorbance data measured from the dilution series, including the absorbance data obtained from wells of the untreated control cells. For each dilution within the dilution series, an average A450/750 was calculated from the four replicate wells.

[4] = test system: Candida albicans (MCC 50319); experiment: Antimicrobial activity (MFC), C. albicans MCC 50319; details: 1 h exposure at room temperature
Description: as §1, §2

[5] = test system: Staphylococcus aureus (ATCC 29213); experiment: Antimicrobial activity (MBC), S. aureus ATCC 29213; details: ATCC29213, S. aureus ATCC 29213, pH 4 (Sal), 1 h exposure at room temperature, read-out: Minimum Bactericidal Concentration (MBC) (≧99.9% kill)
Description: as §1, §2

[6] = test system: Staphylococcus aureus (MCC 91731); experiment: Antimicrobial activity (MBC), S. aureus MCC 91731; details: 1 h exposure at room temperature
Description: as §1, §2

[7] = test system: Pseudomonas aeruginosa (MCC 4438); experiment: Antimicrobial activity (MBC), P. aeruginosa MCC 4438; details: 1 h exposure at room temperature
Description: as §1, §2

[8] = test system: Escherichia coli (MCC 80392); experiment: Antimicrobial activity (MBC), E. coli MCC 80392; details: 1 h exposure at room temperature
Description: as §1, §2

## CC(C)(CC[N+]1(C)CCCCC1)N(Cl)Cl.[Cl-] [Compound 21-80, 1-(3-(Dichloroamino)-3-methylbutyl)-1-methylpiperidinium chloride]
[1]
  MFC: 32 µg/mL
[2]
  MBC: 2 µg/mL
[3]
  CT50 (concentration that results in survival of 50% of the cells): 0.9 mM
[4]; pH 4 (Sal)
  Minimum Fungicidal Concentration (MFC) (≧99.9% kill): 64 µg/mL
[4]; pH 7 (PBS)
  Minimum Fungicidal Concentration (MFC) (≧99.9% kill): >512 µg/mL
[5]
  MBC: 4 µg/mL
[6]; pH 4 (Sal)
  Minimum Bactericidal Concentration (MBC) (≧99.9% kill): 4 µg/mL
[6]; pH 7 (PBS)
  Minimum Bactericidal Concentration (MBC) (≧99.9% kill): >256 µg/mL
[7]; pH 4 (Sal)
  Minimum Bactericidal Concentration (MBC) (≧99.9% kill): 4 µg/mL
[7]; pH 7 (PBS)
  Minimum Bactericidal Concentration (MBC) (≧99.9% kill): >256 µg/mL
[8]; pH 4 (Sal)
  Minimum Bactericidal Concentration (MBC) (≧99.9% kill): 4 µg/mL
[8]; pH 7 (PBS)
  Minimum Bactericidal Concentration (MBC) (≧99.9% kill): 256 µg/mL
